Our source for the IC50 values is patent US12441689B2 (EpiVario, Inc., priority 2019, dated 2025).

human ACSS2 protein, sequence (Q9NR19 whole entry): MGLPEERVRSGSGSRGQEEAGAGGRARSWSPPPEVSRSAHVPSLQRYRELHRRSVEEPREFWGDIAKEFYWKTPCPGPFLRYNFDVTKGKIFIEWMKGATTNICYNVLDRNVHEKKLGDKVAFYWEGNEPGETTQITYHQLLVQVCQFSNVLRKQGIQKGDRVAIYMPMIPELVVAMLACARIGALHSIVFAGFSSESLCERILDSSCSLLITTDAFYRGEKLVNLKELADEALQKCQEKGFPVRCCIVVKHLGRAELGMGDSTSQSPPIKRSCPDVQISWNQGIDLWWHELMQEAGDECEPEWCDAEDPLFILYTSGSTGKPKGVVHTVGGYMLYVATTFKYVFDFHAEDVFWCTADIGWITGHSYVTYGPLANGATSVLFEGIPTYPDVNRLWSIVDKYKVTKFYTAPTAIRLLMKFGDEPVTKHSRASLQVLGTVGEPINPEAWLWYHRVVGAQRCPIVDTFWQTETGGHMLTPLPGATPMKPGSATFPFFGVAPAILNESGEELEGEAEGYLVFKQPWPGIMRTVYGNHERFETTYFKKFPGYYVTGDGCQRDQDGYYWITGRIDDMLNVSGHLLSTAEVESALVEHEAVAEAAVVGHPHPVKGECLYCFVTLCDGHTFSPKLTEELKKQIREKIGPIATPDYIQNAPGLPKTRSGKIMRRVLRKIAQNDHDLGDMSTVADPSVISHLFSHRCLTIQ

The assay has as its target human ACSS2 protein (Homo sapiens (Human), UniProt Q9NR19). Briefly: ACSS2 Cell-Free Activity Assay (Cell-Free IC50). The conditions noted are these: 10 nM human ACSS2 protein, 90 minutes at 37 C, pyrophosphatase-coupled, Biomol Green absorbance at 620 nm; read-out: ACSS2 Biochemical IC50. An excerpt:
ACSS2 Cell-Free Activity Assay (Cell-Free IC50)
For `CCC(F)(F)c1cccc(NC(=O)c2cc(C)nc(-c3ccc(OC(F)F)cn3)c2)c1` [Compound 257, 5'-(difluoromethoxy)-N-(3-(1,1-difluoropropyl)phenyl)-6-methyl-[2,2′-bipyridine]-4-carboxamide], the IC50 was > 100 nM. Then `CCc1nn(-c2ccc(OC(F)F)cc2)c(C)c1C(=O)Nc1cccc(C(C)(F)F)c1` [Compound 155, N-(3-(1,1-difluoroethyl)phenyl)-1-(4-(difluoromethoxy)phenyl)-3-ethyl-5-methyl-1H-pyrazole-4-carboxamide], with > 100 nM.

For the molecule `COc1ccc(-n2nc(C)c(C(=O)Nc3cccc(C(C)(F)F)c3)c2OC(=O)N2CCC(N3CCCCC3)CC2)cc1` [Compound 188, 4-((3-(1,1-difluoroethyl)phenyl)carbamoyl)-1-(4-methoxyphenyl)-3-methyl-1H-pyrazol-5-yl [1,4′-bipiperidine]-1′-carboxylate], the IC50 was 1 to 100 nM. Then `Cc1nn(-c2ccc(OC(F)F)c(-c3cccnc3)c2)c(OC(=O)N2CCN(CCO)CC2)c1C(=O)Nc1cccc(C(C)(F)F)c1` [Compound 187, 4-((3-(1,1-difluoroethyl)phenyl)carbamoyl)-1-(4-(difluoromethoxy)-3-(pyridin-3-yl)phenyl)-3-methyl-1H-pyrazol-5-yl 4-(2-hydroxyethyl)piperazine-1-carboxylate], with > 100 nM.

For the molecule `Cc1nc(-c2ccc(OC(F)F)c(-c3ccccc3)c2)cnc1C(=O)Nc1cccc(C(C)(F)F)c1` [Compound 135, N-[3-(1,1-difluoroethyl)phenyl]-5-[4-(difluoromethoxy)-3-phenyl-phenyl]-3-methyl-pyrazine-2-carboxamide], the IC50 was 1 to 100 nM.

For the molecule `Cc1nn(-c2ccc(OC(F)F)cc2)c(C(F)(F)F)c1C(=O)Nc1cccc(C(C)(F)F)c1` [Compound 192, N-(3-(1,1-difluoroethyl)phenyl)-1-(4-(difluoromethoxy)phenyl)-3-methyl-5-(trifluoromethyl)-1H-pyrazole-4-carboxamide], the IC50 was 1 to 100 nM. As for `CC1=NN(c2ccc(OC(F)F)cc2)C(=O)C1(C)C(=O)Nc1cc(F)cc(Cl)c1` (stereo not shown) [Compound 166, N-(3-chloro-5-fluoro-phenyl)-1-[4-(difluoromethoxy)phenyl]-3,4-dimethyl-5-oxo-pyrazole-4-carboxamide], the IC50 was > 100 nM.

On to `CC1=NN(c2ccc(C=C(c3ccccc3)c3ccccc3)c(Br)c2)C(=O)C1C(=O)Nc1cccc(C(C)(F)F)c1` (stereo not shown) [Compound 110], for which the concentration for half-maximal inhibition (IC50) is 1 to 100 nM. `CCC(F)(F)c1cccc(NC(=O)C2CCN(Cc3ccc(OC)cc3)C(c3ccc(OC)cc3)C2O)c1` (stereo not shown) [Compound 275, N-(3-(1,1-difluoropropyl)phenyl)-3-hydroxy-1-(4-methoxybenzyl)-2-(4-methoxyphenyl)piperidine-4-carboxamide]: the IC50 is > 100 nM. For `Cc1nn(-c2ccc(OC(F)F)cc2)c(C2CCCC2)c1C(=O)Nc1cccc(C(C)(F)F)c1` [Compound 154, 5-cyclopentyl-N-[3-(1,1-difluoroethyl)phenyl]-1-[4-(difluoromethoxy)phenyl]-3-methyl-pyrazole-4-carboxamide], the IC50 was > 100 nM. With `COc1ccc(N2N=C(C)C(Cl)(C(=O)Nc3cccc(C(C)(F)F)c3)C2=O)cc1` (stereo not shown) [Compound 202, 4-chloro-N-(3-(1,1-difluoroethyl)phenyl)-1-(4-methoxyphenyl)-3-methyl-5-oxo-4,5-dihydro-1H-pyrazole-4-carboxamide] the figure was 1 to 100 nM.

As for `COc1ccc(-c2ncc(C)c(C(=O)Nc3cccc(C(C)(F)F)c3)n2)cc1` [Compound 247, N-(3-(1,1-difluoroethyl)phenyl)-2-(4-methoxyphenyl)-5-methylpyrimidine-4-carboxamide], the IC50 was 1 to 100 nM. `Cc1nn(-c2ccc(OC(F)F)c(-c3ccncc3)c2)cc1C(=O)Nc1cccc(C(C)(F)F)c1` [Compound 181, N-(3-(1,1-difluoroethyl)phenyl)-1-(4-(difluoromethoxy)-3-(pyridin-4-yl)phenyl)-3-methyl-1H-pyrazole-4-carboxamide]: the IC50 lay in the range of 1 to 100 nM.

Consider `CC1=NN(c2ccc(OC(F)F)c(-c3cccnc3)c2)C(=O)C1(F)C(=O)Nc1cccc(C(C)(F)F)c1` (stereo not shown) [Compound 206, N-(3-(1,1-difluoroethyl)phenyl)-1-(4-(difluoromethoxy)-3-(pyridin-3-yl)phenyl)-4-fluoro-3-methyl-5-oxo-4,5-dihydro-1H-pyrazole-4-carboxamide], for which the IC50 is < 1 nM.

For `CCC(F)(F)c1cccc(NC(=O)c2nc(-c3ccc(OC(F)F)c(-c4cccnc4)c3)oc2C)c1` [Compound 221, 2-(4-(difluoromethoxy)-3-(pyridin-3-yl)phenyl)-N-(3-(1,1-difluoropropyl)phenyl)-5-methyloxazole-4-carboxamide], the IC50 is > 100 nM.

For `CC1=NN(c2ccc(OC(F)F)cc2)C(=O)C1(C)NC(=O)c1cccc(C(C)(F)F)c1` (stereo not shown) [Compound 198, 3-(1,1-difluoroethyl)-N-(1-(4-(difluoromethoxy)phenyl)-3,4-dimethyl-5-oxo-4,5-dihydro-1H-pyrazol-4-yl)benzamide], the IC50 is > 100 nM. Take `CC1=NN(c2ccc(OC(F)F)c(-c3ccncc3)c2)C(=O)C1(F)C(=O)Nc1cccc(C(C)(F)F)c1` (stereo not shown) [Compound 204, N-(3-(1,1-difluoroethyl)phenyl)-1-(4-(difluoromethoxy)-3-(pyridin-4-yl)phenyl)-4-fluoro-3-methyl-5-oxo-4,5-dihydro-1H-pyrazole-4-carboxamide]: the IC50 is < 1 nM. Consider `CCC1(C(=O)Nc2cccc(C(C)(F)F)c2)C(=O)N(c2ccc(OC(F)F)c(-c3ccccc3)c2)N=C1C` (stereo not shown) [Compound 100, N-(3-(1,1-difluoroethyl)phenyl)-1-(6-(difluoromethoxy)-[1,1′-biphenyl]-3-yl)-4-ethyl-3-methyl-5-oxo-4,5-dihydro-1H-pyrazole-4-carboxamide], for which the IC50 is > 100 nM.

Turning to `CCC(F)(F)c1cccc(NC(=O)c2c(C)[nH]c3cc(OC)ccc3c2=O)c1` [Compound 273, N-(3-(1,1-difluoropropyl)phenyl)-7-methoxy-2-methyl-4-oxo-1,4-dihydroquinoline-3-carboxamide], the IC50 lay within 1 to 100 nM.

Consider `CCC(F)(F)c1cccc(NC(=O)c2nc(-c3ccc(OC(F)F)cc3)[nH]c2C)c1` [Compound 215, 2-(4-(difluoromethoxy)phenyl)-N-(3-(1,1-difluoropropyl)phenyl)-5-methyl-1H-imidazole-4-carboxamide], for which the 50% inhibitory concentration (IC50) was > 100 nM.

`Cc1nn(-c2ccc(OC(F)F)cc2)c(OC(=O)N2CCN(CCO)CC2)c1C(=O)Nc1cccc(C(C)(F)F)c1` [Compound 191, 4-((3-(1,1-difluoroethyl)phenyl)carbamoyl)-1-(4-(difluoromethoxy)phenyl)-3-methyl-1H-pyrazol-5-yl 4-(2-hydroxyethyl)piperazine-1-carboxylate]: the IC50 lay in the range of 1 to 100 nM.

Consider `Cc1nc(-c2ccc(OC(F)F)c(-c3ccccc3)c2)c(C)nc1C(=O)Nc1cccc(C(C)(F)F)c1` [Compound 104, N-(3-(1,1-difluoroethyl)phenyl)-5-(6-(difluoromethoxy)-[1,1′-biphenyl]-3-yl)-3,6-dimethylpyrazine-2-carboxamide], for which the IC50 was > 100 nM. In the case of `Cc1oc(-c2ccc(OC(F)F)c(-c3cccnc3)c2)nc1C(=O)Nc1cccc(C(C)(F)F)c1` [Compound 220, N-(3-(1,1-difluoroethyl)phenyl)-2-(4-(difluoromethoxy)-3-(pyridin-3-yl)phenyl)-5-methyloxazole-4-carboxamide], the IC50 was > 100 nM. With `CCC(F)(F)c1cccc(NC(=O)c2ncc(-c3ccc(OC(F)F)c(-c4ccccc4)c3)nc2C)c1` [Compound 134, 5-[4-(difluoromethoxy)-3-phenyl-phenyl]-N-[3-(1,1-difluoropropyl)phenyl]-3-methyl-pyrazine-2-carboxamide], the IC50 was > 100 nM.

Take `CC1=NN(c2ccc(OC(F)F)cc2)C(=O)[C@@]1(C)C(=O)Nc1cccc(C(C)(F)F)c1` [Compound 169, (4R)—N-(3-(1,1-difluoroethyl)phenyl)-1-(4-(difluoromethoxy)phenyl)-3,4-dimethyl-5-oxo-4,5-dihydro-1H-pyrazole-4-carboxamide]: the IC50 was > 100 nM.

On to `Cc1oc(-c2ccc(OC(F)F)cc2)nc1C(=O)Nc1cccc(C(C)(F)F)c1` [Compound 113, N-(3-(1,1-difluoroethyl)phenyl)-2-(4-(difluoromethoxy)phenyl)-5-methyloxazole-4-carboxamide], for which the IC50 is > 100 nM. `CC1=NN(c2ccc(OC(F)F)cc2)C(=O)C1(Cl)C(=O)Nc1cccc(C(C)(F)F)c1` (stereo not shown) [Compound 172, 4-chloro-N-(3-(1,1-difluoroethyl)phenyl)-1-(4-(difluoromethoxy)phenyl)-3-methyl-5-oxo-4,5-dihydro-1H-pyrazole-4-carboxamide]: the IC50 lay within 1 to 100 nM. For the molecule `CCc1c(C(=O)Nc2cccc(C(C)(F)F)c2)c(C)nn1-c1ccc(OC(F)F)c(-c2ccccc2)c1` [Compound 151, N-[3-(1,1-difluoroethyl)phenyl]-1-[4-(difluoromethoxy)-3-phenyl-phenyl]-5-ethyl-3-methyl-pyrazole-4-carboxamide], the IC50 was > 100 nM. For `CCC(F)(F)c1cccc(NC(=O)c2c(C)nn(-c3ccc(OC)cc3)c2Cl)c1` [Compound 231, 5-chloro-N-(3-(1,1-difluoropropyl)phenyl)-1-(4-methoxyphenyl)-3-methyl-1H-pyrazole-4-carboxamide], the 50% inhibitory concentration (IC50) is > 100 nM.

`CCC(F)(F)c1cccc(NC(=O)c2c(C)nn(-c3ccc(OC)cc3)c2C(=O)OC)c1` [Compound 234, methyl 4-((3-(1,1-difluoropropyl)phenyl)carbamoyl)-1-(4-methoxyphenyl)-3-methyl-1H-pyrazole-5-carboxylate]: the IC50 was > 100 nM. Regarding `CCC(F)(F)c1cccc(NC(=O)c2cc(-c3ccc(OC(F)F)c(-c4ccccc4)n3)[nH]c2C)c1` [Compound 223, 5-(5-(difluoromethoxy)-6-phenylpyridin-2-yl)-N-(3-(1,1-difluoropropyl)phenyl)-2-methyl-1H-pyrrole-3-carboxamide], the IC50 was > 100 nM.
